Assay results as given in US12304912B2, “Fused bicyclic RAF inhibitors and methods for use thereof” (Jazz Pharmaceuticals Ireland Limited, priority 2020, dated 2025).
In brackets after ≈: the same amount, converted by molar mass. Structures can show the parent of a compound that is named as a salt. Where two headings read alike, the source gives them in different places.

How the values were obtained:
[1] = Microsomal stability assay, human liver microsomes (HLM); assay type: in vitro ADME; conditions: 0.5 mg/mL protein, 1 μM substrate
Method in brief: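 Substrate depletion: 1 μM compound incubated at 37° C. with cryopreserved mouse or human liver microsomes at 0.5 mg·mL^−1 protein. Timed aliquots quenched in ice-cold organic solvent and measured by LC-MS/MS; t1/2 and CLint derived from the slope of ln % remaining versus time.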

[2] = Plasma protein binding assay, mouse plasma (mPPB); assay type: in vitro ADME; conditions: 5 μM
Method in brief: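 Equilibrium dialysis of 5 μM compound in previously frozen human or mouse plasma against phosphate buffer, 4 h at 37 °C. Both chambers quantified by LC-MS/MS; % free = (1−((PC−PF)/PC))×100.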

[3] = Solubility (Sol), medium not stated; assay type: physicochemical; conditions: cells not marked (FESSIF)
FeSSIF solubility assay = assay type: physicochemical; conditions: fed state simulated intestinal fluid (FeSSIF), thermodynamic from solid, pH 5 acetate buffer, 37° C.
Protocol: FeSSIF Solubility Assay 1 mL of fed state simulated intestinal fluid (FeSSIF), prepared using FaSSIF/FeSSIF/FaSSGF powder (Biorelevant.com) and pH 5 acetate buffer, was added to 1.0 mg of compound and then incubated for 24 h (Bioshake iQ, 650 rpm, 37° C.). Following filtration under positive pressure, the concentration of compound in solution was assessed by LC-UV in comparison to the response for a calibration standard of known concentration (250 μM). FeSSIF solubility results are described in Tables 1-2.

WiDr cells = assay: WiDr CellTiter-Glo 3D cell proliferation assay; assay type: cell-based; conditions: Homo sapiens; WiDr cells, 3D proliferation; read-out: 3D WiDr pGI50 (converted)
[4] = equilibrium dialysis 4 hours 37° C.
[5] = equilibrium dialysis 4 hours at 37° C.

| Structure (SMILES) | microsomal CLint at 1 μM [1] [µL/min/mg] | mPPB (% free) [2, 4] [% free] | Sol [3] [mg/L] | microsomal CLint at 1 μM ([1]; 37° C.) [µL/min/mg] | mPPB (% free) [2, 5] [% free] | solubility thermodynamic at 24 h (FeSSIF solubility assay; read-out: FESSIF Sol) [µg/mL] | solubility thermodynamic at 24 h (FeSSIF solubility assay; read-out: Sol (FESSIF)) [µg/mL] | GI50 (WiDr cells) [µM] |
| --- | --- | --- | --- | --- | --- | --- | --- | --- |
| O=C1CCc2c(Oc3ccc4c(c3)CC(c3nc5cc(C(F)(F)F)ccc5[nH]3)CO4)ccnc2N1 (centres unmarked) [Compound 22, 5-[3-[6-(trifluoromethyl)-1H-benzimidazol-2-yl]chroman-6-yl]oxy-3,4-dihydro-1H-1,8-naphthyridin-2-one] | 35.9 | <0.1 | <1.2 |  |  |  |  |  |
| Cc1cc(-c2c[nH]c(C3COc4ccc(Oc5ccnc6c5CCC(=O)N6)cc4C3)n2)n(C(C)C)n1 (centres unmarked) [Compound 112, 5-[3-[4-(2-isopropyl-5-methyl-pyrazol-3-yl)-1H-imidazol-2-yl]chroman-6-yl]oxy-3,4-dihydro-1H-1,8-naphthyridin-2-one] |  |  |  | 81.5 | 2.0 | 51.1 (≈ 105 µM) |  |  |
| O=C1CCc2c(Oc3ccc4c(c3)CC(c3nc(-c5ccc(C(F)(F)F)nc5)c[nH]3)CO4)ccnc2N1 (centres unmarked) [Compound 127, 5-[3-[4-[6-(trifluoromethyl)-3-pyridyl]-1H-imidazol-2-yl]chroman-6-yl]oxy-3,4-dihydro-1H-1,8-naphthyridin-2-one] |  |  |  | 38.7 | 0.2 | 6 (≈ 11.8 µM) |  |  |
| CCc1cc(-c2c[nH]c(C3COc4ccc(Oc5ccnc6c5CCC(=O)N6)cc4C3)n2)n(C2CC2)n1 (centres unmarked) [Compound 113, 5-[3-[4-(2-cyclopropyl-5-ethyl-pyrazol-3-yl)-1H-imidazol-2-yl]chroman-6-yl]oxy-3,4-dihydro-1H-1,8-naphthyridin-2-one] |  |  |  | 82.1 | 1.6 | 140 (≈ 281 µM) |  |  |
| O=C1CCc2c(Oc3ccc4c(c3)CN(C(=O)Nc3cccc(C(F)(F)F)c3)CC4)ccnc2N1 [Compound 50] | 70.4 | 1.6 | <1.2 |  |  |  |  |  |
| O=C1CCc2c(Oc3ccc4c(c3)CN(c3nc(-c5ccccc5)n[nH]3)CC4)ccnc2N1 [Compound 44, 5-[[2-(3-phenyl-1H-1,2,4-triazol-5-yl)-3,4-dihydro-1H-isoquinolin-7-yl]oxy]-3,4-dihydro-1H-1,8-naphthyridin-2-one hydrochloride] | 14.2 | 0.9 | <1.2 |  |  |  |  |  |
| O=C(Nc1cc(Oc2ccc3c(c2)CC(c2nc(-c4ccccc4)c[nH]2)CO3)ccn1)C1CC1 (centres unmarked) [Compound 45, N-[4-[3-(4-phenyl-1H-imidazol-2-yl)chroman-6-yl]oxy-2-pyridyl]cyclopropanecarboxamide] | 58.1 | 0.2 | <1.2 |  |  |  |  |  |
| O=C1CCc2c(Oc3ccc4c(c3)CC(c3nc(-c5cccnc5C(F)(F)F)c[nH]3)CO4)ccnc2N1 (centres unmarked) [Compound 128, 5-[3-[4-[2-(trifluoromethyl)-3-pyridyl]-1H-imidazol-2-yl]chroman-6-yl]oxy-3,4-dihydro-1H-1,8-naphthyridin-2-one] |  |  |  |  | 1.2 | 1.6 (≈ 3.15 µM) |  |  |
| CN(C)c1ccc2[nH]c(C3COc4ccc(Oc5ccnc6c5CCC(=O)N6)cc4C3)nc2c1 (centres unmarked) [Compound 26] | 77.5 | 1 | <1.1 |  |  |  |  |  |
| O=C1CCc2c(Oc3ccc4c(c3)CN(C(=O)Nc3ccc(C(F)(F)F)cc3)CC4)ccnc2N1 [Compound 47] | 24.5 | 0.3 |  |  |  |  | 27.5 (≈ 57 µM) |  |
| Cc1cc(-c2c[nH]c(C3COc4ccc(Oc5ccnc6c5CCC(=O)N6)cc4C3)n2)n(C2CC2)n1 (centres unmarked) [Compound 114, 5-[3-[4-(2-cyclopropyl-5-methyl-pyrazol-3-yl)-1H-imidazol-2-yl]chroman-6-yl]oxy-3,4-dihydro-1H-1,8-naphthyridin-2-one] |  |  |  | 38.5 | 2.0 | 497 (≈ 1030 µM) |  |  |
| Cc1cc(-c2c[nH]c(C3COc4ccc(Oc5ccnc6c5CCC(=O)N6)cc4C3)n2)n(CC(F)(F)F)n1 (centres unmarked) [Compound 126, 5-[3-[4-[5-methyl-2-(2,2,2-trifluoroethyl)pyrazol-3-yl]-1H-imidazol-2-yl]chroman-6-yl]oxy-3,4-dihydro-1H-1,8-naphthyridin-2-one] |  |  |  | 121 | 0.7 | < 1.3 |  | 15.1 |
| O=C(Nc1cc(Oc2ccc3c(c2)CC(c2nc(-c4ccccc4)c[nH]2)CO3)ccn1)C1CC(F)(F)C1 (centres unmarked) [Compound 139] |  |  |  | 99.8 | <0.1 | 107 (≈ 212 µM) |  |  |
| O=C1CCc2c(Oc3ccc4c(c3)CC(c3nc5cc(C(F)(F)F)ncc5[nH]3)CO4)ccnc2N1 (racemic) [Compound 32] | 11.3 | 3.2 | <1.2 |  |  |  |  |  |
| N#Cc1ccc2[nH]c(C3COc4ccc(Oc5ccnc6c5CCC(=O)N6)cc4C3)nc2c1 (centres unmarked) [Compound 24] | 12.7 | 1.9 | <1.1 |  |  |  |  |  |
| O=C(Nc1cc(Oc2ccc3c(c2)CC(c2nc(-c4ccccc4)c[nH]2)CO3)ccn1)C1(F)CC1 (centres unmarked) [Compound 138] |  |  |  | 134 | <0.1 |  |  |  |
| O=C1CCc2c(Oc3ccc4c(c3)CC(c3nc5cc(F)c(F)cc5[nH]3)CO4)ccnc2N1 (centres unmarked) [Compound 23] | 29.9 | 0.5 | <1.1 |  |  |  |  |  |
| COc1cc(-c2c[nH]c(C3COc4ccc(Oc5ccnc6c5CCC(=O)N6)cc4C3)n2)ccn1 (centres unmarked) [Compound 19, 5-[3-[4-(2-methoxy-4-pyridyl)-1H-imidazol-2-yl]chroman-6-yl]oxy-3,4-dihydro-1H-1,8-naphthyridin-2-one] | 27.8 | 1.5 |  |  |  |  | 19.6 (≈ 41.7 µM) |  |
| O=C1CCc2c(Oc3ccc4c(c3)CC(c3nc5cc(Cl)ccc5[nH]3)CO4)ccnc2N1 (centres unmarked) [Compound 25] | 50.1 | 1.5 |  |  |  |  | 1.8 (≈ 4.03 µM) |  |
| O=C1CCc2c(Oc3ccc4c(c3)CC(c3nc(-c5cccc(C(F)(F)F)c5)c[nH]3)CO4)ccnc2N1 (centres unmarked) [Compound 12, 5-[3-[4-[3-(trifluoromethyl)phenyl]-1H-imidazol-2-yl]chroman-6-yl]oxy-3,4-dihydro-1H-1,8-naphthyridin-2-one] | 88.6 | <0.1 | <1.3 |  |  |  |  |  |
| Cc1cc2nc(C3COc4ccc(Oc5ccnc6c5CCC(=O)N6)cc4C3)[nH]c2cc1C (centres unmarked) [Compound 29] | 119 | 0.6 | <1.1 |  |  |  |  |  |
